Measurements published in patent US20240208992A1, “MACROCYCLES AS CFTR MODULATORS” (Idorsia Pharmaceuticals Ltd, priority 2021, published 2024).

Target: human F508del-CFTR (Homo sapiens, UniProt P13569, DEL508-508)
Experiment: F508del-CFTR cell surface expression (corrector activity), DiscoveRx ß-galactosidase complementation chemiluminescence assay in recombinant U2OS cell line;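 also: U2OS cells co-expressing ProLink-tagged F508del-CFTR and a membrane-anchored enzyme acceptor, where more surface CFTR restores β-galactosidase activity measured by chemiluminescence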
Settings: for EC50: EC50, F508del-CFTR cell surface expression; for Emax: U2OS
[1] = U2OS cell line, 16h compound incubation, geomean values
[2] = in relation to the Emax of the corrector lumacaftor (=100%), U2OS cell line, 16h compound incubation, arithmetic mean values
[3] = U2OS cells, 16h compound incubation, geomean values
[4] = in relation to Emax of corrector lumacaftor (=100%), arithmetic mean values
[5] = U2OS cells, 16h compound incubation, geomean of several measurements
[6] = in relation to the Emax of the corrector lumacaftor (=100%), U2OS cells, 16h compound incubation, arithmetic mean

Chain of human F508del-CFTR (P13569 with tags, fused parts or gaps DEL508-508): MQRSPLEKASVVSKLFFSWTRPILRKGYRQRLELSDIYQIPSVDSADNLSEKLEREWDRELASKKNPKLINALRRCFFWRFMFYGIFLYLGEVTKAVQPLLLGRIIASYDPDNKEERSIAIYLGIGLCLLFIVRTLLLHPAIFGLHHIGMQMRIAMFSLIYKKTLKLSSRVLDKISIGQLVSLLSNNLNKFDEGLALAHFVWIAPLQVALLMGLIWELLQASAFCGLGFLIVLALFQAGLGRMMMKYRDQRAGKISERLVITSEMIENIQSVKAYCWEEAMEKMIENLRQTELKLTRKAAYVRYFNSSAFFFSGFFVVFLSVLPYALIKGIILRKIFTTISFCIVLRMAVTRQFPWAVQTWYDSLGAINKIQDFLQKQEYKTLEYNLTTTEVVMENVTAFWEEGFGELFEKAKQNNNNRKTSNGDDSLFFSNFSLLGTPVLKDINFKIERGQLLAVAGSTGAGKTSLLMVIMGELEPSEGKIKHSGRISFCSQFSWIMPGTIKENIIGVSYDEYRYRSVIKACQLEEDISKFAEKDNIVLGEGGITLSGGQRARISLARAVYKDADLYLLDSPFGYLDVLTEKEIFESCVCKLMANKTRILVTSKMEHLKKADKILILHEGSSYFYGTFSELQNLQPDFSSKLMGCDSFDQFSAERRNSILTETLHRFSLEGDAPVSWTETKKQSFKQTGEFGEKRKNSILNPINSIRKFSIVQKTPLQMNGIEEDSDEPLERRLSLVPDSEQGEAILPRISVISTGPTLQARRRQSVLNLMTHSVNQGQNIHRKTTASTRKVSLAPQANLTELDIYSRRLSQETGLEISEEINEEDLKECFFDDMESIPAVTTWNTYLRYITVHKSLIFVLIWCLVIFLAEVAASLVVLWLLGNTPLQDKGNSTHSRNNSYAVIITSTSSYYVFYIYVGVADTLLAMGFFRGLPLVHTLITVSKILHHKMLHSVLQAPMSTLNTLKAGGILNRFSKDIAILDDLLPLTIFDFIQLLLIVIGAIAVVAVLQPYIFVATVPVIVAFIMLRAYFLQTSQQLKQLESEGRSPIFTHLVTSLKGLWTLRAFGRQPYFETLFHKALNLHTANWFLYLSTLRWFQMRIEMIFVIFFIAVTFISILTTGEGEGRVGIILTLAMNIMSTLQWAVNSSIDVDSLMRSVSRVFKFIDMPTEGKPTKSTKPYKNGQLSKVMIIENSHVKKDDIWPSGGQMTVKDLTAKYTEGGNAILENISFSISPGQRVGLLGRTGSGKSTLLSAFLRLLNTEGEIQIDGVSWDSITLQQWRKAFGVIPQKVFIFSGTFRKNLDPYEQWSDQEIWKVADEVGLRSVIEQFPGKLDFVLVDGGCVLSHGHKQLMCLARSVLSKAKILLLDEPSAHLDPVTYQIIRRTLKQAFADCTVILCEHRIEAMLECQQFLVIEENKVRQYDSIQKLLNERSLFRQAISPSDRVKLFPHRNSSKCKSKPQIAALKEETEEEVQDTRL

| EC50 [3] | Emax [4] | SMILES | EC50 [1] | Emax [2] | also measured |
| --- | --- | --- | --- | --- | --- |
|  |  | Cc1nc(CCNC(=O)[C@@H]2CC(=O)N(C)[C@@H](CC(C)C)C(=O)N3CCCC[C@@H]3C(=O)N[C@H](Cc3ccccc3)COc3cnc4ccccc4c3C(=O)N2)no1 [Example 78, (9S,13S,19aR,22R)-22-benzyl-13-isobutyl-12-methyl-N-(2-(5-methyl-1,2,4-oxadiazol-3-yl)ethyl)-7,11,14,20-tetraoxo-7,8,9,10,11,12,13,14,17,18,19,19a,20,21,22,23-hexadecahydro-16H-pyrido[2′,1′:6,7][1]oxa[4,7,10,14]tetraazacycloheptadecino[17,16-c]quinoline-9-carboxamide] | 544 nM | 277% |  |
| 881 nM | 119% | CC(C)C[C@H]1C(=O)N2CCCC[C@H]2C(=O)N[C@H](Cc2ccccc2)COc2ccncc2C(=O)N[C@H](C(=O)NCCc2ccc3c(c2)OCC3)CC(=O)N1C [Example 592, (7S,11S,17aS,20R)-20-benzyl-N-(2-(2,3-dihydrobenzofuran-6-yl)ethyl)-11-isobutyl-10-methyl-5,9,12,18-tetraoxo-5,6,7,8,9,10,11,12,15,16,17,17a,18,19,20,21-hexadecahydro-14H-dipyrido[2,1-f:3′,4′-p][1]oxa[4,7,10,14]tetraazacycloheptadecine-7-carboxamide] |  |  |  |
|  |  | COc1cccc(CCNC(=O)[C@@H]2CC(=O)N(C)[C@@H](CC(C)C)C(=O)N(CCC3CCCCC3)CC(=O)N[C@H](Cc3ccccc3)COc3cc4ccccc4cc3C(=O)N2)c1 [Example 251, (3R,9S,13S)-3-benzyl-7-(2-cyclohexylethyl)-9-isobutyl-N-(3-methoxyphenethyl)-10-methyl-5,8,11,15-tetraoxo-2,3,4,5,6,7,8,9,10,11,12,13,14,15-tetradecahydronaphtho[2,3-p][1]oxa[4,7,10,14]tetraazacycloheptadecine-13-carboxamide] | 83 nM | 159% |  |
| 212 nM | 390% | COc1noc(CCNC(=O)[C@@H]2CC(=O)N(C)[C@@H](CC(C)C)C(=O)N3CCCC[C@@H]3C(=O)N[C@H](Cc3ccccc3)COc3ccnc(OC)c3C(=O)N2)c1F [Example 767, (7S,11S,17aR,20R)-20-benzyl-N-(2-(4-fluoro-3-methoxyisoxazol-5-yl)ethyl)-11-isobutyl-4-methoxy-10-methyl-5,9,12,18-tetraoxo-5,6,7,8,9,10,11,12,15,16,17,17a,18,19,20,21-hexadecahydro-14H-dipyrido[2,1-f:3′,4′-p][1]oxa[4,7,10,14]tetraazacycloheptadecine-7-carboxamide] |  |  |  |
|  |  | CN1C(=O)C[C@@H](C(=O)NCCc2ccc3c(c2)OCO3)NC(=O)c2c(ccc3ccccc23)OC[C@@H](Cc2ccccc2)NC(=O)CN(C[C@@H]2CCCCO2)C(=O)[C@@H]1CC1CCCCC1 (mixture of isomers) [Example 285, (3RS,7S,13R)-N-(2-(benzo[d][1,3]dioxol-5-yl)ethyl)-13-benzyl-7-(cyclohexylmethyl)-6-methyl-1,5,8,11-tetraoxo-9-(((S)-tetrahydro-2H-pyran-2-yl)methyl)-1,2,3,4,5,6,7,8,9,10,11,12,13,14-tetradecahydronaphtho[1,2-p][1]oxa[4,7,10,14]tetraazacycloheptadecine-3-carboxamide] | 239 nM |  |  |
|  |  | Cc1noc(CC[C@@H]2C(=O)N[C@H](Cc3ccccc3)COc3cnc4ccc(F)cc4c3C(=O)N[C@H](C(=O)NCCc3noc(C4CC4)n3)CC(=O)N(C)[C@@H](CC(C)C)C(=O)N2C)n1 [Example 851, (3S,7S,10R,13R)-13-benzyl-N-(2-(5-cyclopropyl-1,2,4-oxadiazol-3-yl)ethyl)-20-fluoro-7-isobutyl-6,9-dimethyl-10-(2-(3-methyl-1,2,4-oxadiazol-5-yl)ethyl)-1,5,8,11-tetraoxo-1,2,3,4,5,6,7,8,9,10,11,12,13,14-tetradecahydro-[1]oxa[4,7,10,14]tetraazacycloheptadecino[17,16-c]quinoline-3-carboxamide] |  |  | EC50 [5]: 148 nM; Emax [6]: 310% |
| 504 nM | 361% | COc1nccc2c1C(=O)N[C@H](C(=O)NCCc1ccc(-n3nccn3)cc1)CC(=O)N(C)[C@@H](CC(C)C)C(=O)N1CCCC[C@@H]1C(=O)N[C@H](Cc1ccccc1)CO2 [Example 468, (7S,11S,17aR,20R)-N-(4-(2H-1,2,3-triazol-2-yl)phenethyl)-20-benzyl-11-isobutyl-4-methoxy-10-methyl-5,9,12,18-tetraoxo-5,6,7,8,9,10,11,12,15,16,17,17a,18,19,20,21-hexadecahydro-14H-dipyrido[2,1-f:3′,4′-p][1]oxa[4,7,10,14]tetraazacycloheptadecine-7-carboxamide] |  |  |  |
|  |  | COc1cc(CCNC(=O)[C@@H]2CC(=O)N(C)[C@@H](CC(C)C)C(=O)N(CCC3CCCCC3)CC(=O)N[C@H](Cc3ccccc3)COc3cccc(OC)c3C(=O)N2)ccn1 [Example 158, (3R,9S,13S)-3-benzyl-7-(2-cyclohexylethyl)-9-isobutyl-16-methoxy-N-(2-(2-methoxypyridin-4-yl)ethyl)-10-methyl-5,8,11,15-tetraoxo-2,3,4,5,6,7,8,9,10,11,12,13,14,15-tetradecahydrobenzo[p][1]oxa[4,7,10,14]tetraazacycloheptadecine-13-carboxamide] | 315 nM | 169% |  |
|  |  | COc1cccc2c1C(=O)N[C@H](C(=O)NCCc1ccc3c(c1)OCO3)CC(=O)N(C)[C@@H](CC1CCCC1)C(=O)N(C[C@H]1CCCCO1)CC(=O)N[C@H](Cc1ccccc1)CO2 [Example 307, (3R,9S,13S)-N-(2-(benzo[d][1,3]dioxol-5-yl)ethyl)-3-benzyl-9-(cyclopentylmethyl)-16-methoxy-10-methyl-5,8,11,15-tetraoxo-7-(((R)-tetrahydro-2H-pyran-2-yl)methyl)-2,3,4,5,6,7,8,9,10,11,12,13,14,15-tetradecahydrobenzo[p][1]oxa[4,7,10,14]tetraazacycloheptadecine-13-carboxamide] | 423 nM | 113% |  |
|  |  | COc1cccc2c1C(=O)N[C@H](C(=O)NCCc1nc3ccccc3o1)CC(=O)N(C)[C@@H](CC(C)C)C(=O)N(CCC1CCCCC1)CC(=O)N[C@H](Cc1ccccc1)CO2 (racemic) [Example 16, (3R,9S,13RS)-N-(2-(benzo[d]oxazol-2-yl)ethyl)-3-benzyl-7-(2-cyclohexylethyl)-9-isobutyl-16-methoxy-10-methyl-5,8,11,15-tetraoxo-2,3,4,5,6,7,8,9,10,11,12,13,14,15-tetradecahydrobenzo[p][1]oxa[4,7,10,14]tetraazacycloheptadecine-13-carboxamide] |  | 137% |  |
| 235 nM | 232% | Cc1nc2ccc3c(c2o1)C(=O)N[C@H](C(=O)NCCc1cccc([C@H](C)O)c1)CC(=O)N(C)[C@@H](CC(C)C)C(=O)N(CCC1CCCCC1)CC(=O)N[C@H](Cc1ccccc1)CO3 (racemic) [Example 728, (8R,14S,18S)-8-benzyl-12-(2-cyclohexylethyl)-N-(3-((RS)-1-hydroxyethyl)phenethyl)-14-isobutyl-2,15-dimethyl-10,13,16,20-tetraoxo-7,8,9,10,11,12,13,14,15,16,17,18,19,20-tetradecahydrooxazolo[4′,5′:5,6]benzo[1,2-p][1]oxa[4,7,10,14]tetraazacycloheptadecine-18-carboxamide] |  |  |  |
|  |  | COc1cccc2c1C(=O)N[C@H](C(=O)NCCc1ccc3c(c1)OCO3)CC(=O)N(C)CC(=O)N(CCC1CCCCC1)CC(=O)N[C@H](Cc1ccccc1)CO2 [Example 257, (3R,13S)-N-(2-(benzo[d][1,3]dioxol-5-yl)ethyl)-3-benzyl-7-(2-cyclohexylethyl)-16-methoxy-10-methyl-5,8,11,15-tetraoxo-2,3,4,5,6,7,8,9,10,11,12,13,14,15-tetradecahydrobenzo[p][1]oxa[4,7,10,14]tetraazacycloheptadecine-13-carboxamide] | 249 nM | 116% |  |
|  |  | COc1nc(C)cc2c1C(=O)N[C@H](C(=O)NCCc1nc(C3CC3)no1)CC(=O)N(C)[C@@H](CC(C)C)C(=O)N(C)[C@H](Cc1nc(C(F)(F)F)no1)C(=O)N[C@H](Cc1ccccc1)CO2 [Example 849, (3R,6R,9S,13S)-3-benzyl-N-(2-(3-cyclopropyl-1,2,4-oxadiazol-5-yl)ethyl)-9-isobutyl-16-methoxy-7,10,18-trimethyl-5,8,11,15-tetraoxo-6-((3-(trifluoromethyl)-1,2,4-oxadiazol-5-yl)methyl)-2,3,4,5,6,7,8,9,10,11,12,13,14,15-tetradecahydropyrido[3,4-p][1]oxa[4,7,10,14]tetraazacycloheptadecine-13-carboxamide] |  |  | EC50 [5]: 46 nM; Emax [6]: 465% |

| SMILES | EC50 [3] | Emax [4] | EC50 [1] | Emax [2] | also measured |
| --- | --- | --- | --- | --- | --- |
| COc1cccc(CCNC(=O)[C@@H]2CC(=O)N(C)[C@@H](CC(C)C)C(=O)N(C)CC(=O)N[C@H](Cc3ccccc3)COc3ccc4nc(C)oc4c3C(=O)N2)c1 [Example 598, (8R,14S,18S)-8-benzyl-14-isobutyl-N-(3-methoxyphenethyl)-2,12,15-trimethyl-10,13,16,20-tetraoxo-7,8,9,10,11,12,13,14,15,16,17,18,19,20-tetradecahydrooxazolo[4′,5′:5,6]benzo[1,2-p][1]oxa[4,7,10,14]tetraazacycloheptadecine-18-carboxamide] | 759 nM | 312% |  |  |  |
| COc1cccc(CCNC(=O)[C@@H]2CC(=O)N(C)[C@@H](CC(C)C)C(=O)N(C)CC(=O)N[C@H](Cc3ccccc3)COc3ccc4ccccc4c3C(=O)N2)c1 [Example 595, (3S,7S,13R)-13-benzyl-7-isobutyl-N-(3-methoxyphenethyl)-6,9-dimethyl-1,5,8,11-tetraoxo-1,2,3,4,5,6,7,8,9,10,11,12,13,14-tetradecahydronaphtho[1,2-p][1]oxa[4,7,10,14]tetraazacycloheptadecine-3-carboxamide] | 332 nM | 233% |  |  |  |
